Assay [1] deals with T1, Human GPR40 (Homo sapiens, UniProt O14842). Nature of the assay: FLIPR assay, agonist-induced calcium mobilization. Set-up: expressed in transfected cells. The assay is classed as cell-based. The note with it: GPR40/CHO NFAT BLA cells. The protocol:
Human and mouse GPR40 stable cell-lines were generated in CHO cells stably expressing NFAT BLA (Beta-lactamase). A human GPR40 stable cell-line was generated in HER cells stably expressing the aequorin expressing reporter. The expression plasmids were transfected using lipofectamine (Life Technologies) following manufacturer's instructions. Stable cell-lines were generated following drug selection.
FLIPR (Fluorimetric Imaging Plate Reader, Molecular Devices) assays were performed to measure agonist-induced calcium mobilization of the stable clones. For the FLIPR assay, one day before assay, GPR40/CHO NFAT BLA cells were seeded into black-wall-clear-bottom 384-well plates (Costar) at 1.4×10e4 cells/20 μL medium/well. The cells were incubated with 20 μl/well of the assay buffer (HMS, 0.1% BSA, 20 mM HEPES, 2.5 mM probenecid, pH 7.4) containing 8 μM fluo-4, AM, 0.08% pluronic acid at room temperature for 100 minutes. Fluorescence output was measured using FLIPR. Compounds were dissolved in DMSO and diluted to desired concentrations with assay buffer. 13.3 μL/well of compound solution was added.
On the technique in general: Calcium assays in cells follow changes in intracellular calcium, usually with a dye or a luminescent sensor.

In assay [2] the target is T1, Human GPR40. Nature of the assay: Inositol Phosphate Turnover (IP1) Assay. The assay is classed as cell-based. Set-up: expressed in transfected cells; host or cells: HEK cells (stably expressing the aequorin reporter). Conditions: HEK cells stably expressing human GPR40, CisBio IP-One kit. A digest of the protocol:
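HEK cells stably expressing human GPR40, plated 15,000 per well and incubated 16 h, then exposed to compound for 60 min at 37 degrees in stimulation buffer. IP1 measured by HTRF (IP-One) as 665/620 nm ratio, converted to IP1 concentration via a standard curve.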

From US10000454B2, “Antidiabetic tricyclic compounds” (Merck Sharp & Dohme Corp., priority 2014, dated 2018) come the findings set out here.

The structures appear in SMILES notation.

T1 sequence (O14842 whole entry): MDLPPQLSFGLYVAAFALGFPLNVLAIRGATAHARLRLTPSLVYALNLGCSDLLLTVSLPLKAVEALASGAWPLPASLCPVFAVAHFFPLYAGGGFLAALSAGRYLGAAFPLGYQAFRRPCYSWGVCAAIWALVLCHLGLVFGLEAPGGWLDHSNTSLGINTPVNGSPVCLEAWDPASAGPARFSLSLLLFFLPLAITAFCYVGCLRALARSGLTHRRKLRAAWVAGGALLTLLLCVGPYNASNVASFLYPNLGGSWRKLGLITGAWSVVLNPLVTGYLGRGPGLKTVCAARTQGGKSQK

Take `Cc1c(COc2cc3c(cn2)[C@H]2[C@@H](C3)[C@@H]2C(=O)O)ccc2c1C(c1ccccc1C(F)(F)F)CCC2` (stereo partly drawn) [Example 43, (5aR,6S,6aS)-3-((1-methyl-8-(2-(trifluoro-methyl)phenyl)-5,6,7,8-tetrahydro-naphthalen-2-yl)methoxy)-5,5a,6,6a-tetrahydrocyclopropa[4,5] cyclopenta[1,2-c]pyridine-6-carboxylic acid]: the values for the EC50 in assay [1] and in assay [2] were 0.0388 µM and 0.0708 µM, respectively.
For `O=C(O)[C@H]1[C@@H]2Cc3cc(OCc4cc5c(cc4F)CCCC5c4ccccc4C(F)(F)F)ncc3[C@@H]21` (stereo partly drawn) [Example 44, (5aR,6S,6aS)-3-((3-fluoro-8-(2-(trifluoro-methyl)phenyl)-5,6,7,8-tetrahydronaphthalen-2-yl)methoxy)-5,5a,6,6a-tetrahydrocyclopropa[4,5] cyclopenta[1,2-c]pyridine-6-carboxylic acid] the same measures were 0.021 µM and 0.068 µM.
For `CC1CCc2ccc(COc3cc4c(cn3)[C@H]3[C@@H](C4)[C@@H]3C(=O)O)cc2C1c1ccccc1C(F)(F)F` (stereo partly drawn) [Example 46, (5aR,6S,6aS)-3-((7-methyl-8-(2-(trifluoromethyl)phenyl)-5,6,7,8-tetrahydronaphthalen-2-yl)methoxy)-5,5a,6,6a-tetrahydrocyclopropa[4,5]cyclopenta[1,2-c]pyridine-6-carboxylic acid] the same measures were 0.00874 µM and 0.0796 µM.
For `CC1=C(c2ccccc2C(F)(F)F)c2cc(COc3cc4c(cn3)[C@H]3[C@@H](C4)[C@@H]3C(=O)O)ccc2CC1` [Example 47, (5aR,6S,6aS)-3-((7-methyl-8-(2-(trifluoromethyl)-phenyl)-5,6-dihydro-naphthalen-2-yl)methoxy)-5,5a,6,6a-tetrahydrocyclo-propa[4,5]cyclopenta[1,2-c]pyridine-6-carboxylic acid] the same measures were 0.0114 µM and 0.236 µM.
Consider `O=C(O)[C@H]1[C@@H]2Cc3cc(OCc4ccc5c(c4)C(c4ccccc4C(F)(F)F)CCO5)ncc3[C@@H]21` (stereo partly drawn) [Example 48, (5aR,6S,6aS)-3-((4-(2-(trifluoromethyl)phenyl)chroman-6-yl)methoxy)-5,5a,6,6a-tetrahydrocyclopropa[4,5]cyclopenta[1,2-c]pyridine-6-carboxylic acid], for which the EC50 in assay [1] worked out at 0.0778 µM; in assay [2], 0.0362 µM.
The like results for `O=C(O)[C@H]1[C@@H]2Cc3cc(OCc4ccc5c(c4)C(c4ccccc4C(F)(F)F)OCC5)ncc3[C@@H]21` (stereo partly drawn) [Example 50, (5aR,6S,6aS)-3-((1-(2-(trifluoromethyl)phenyl)isochroman-7-yl)methoxy)-5,5a,6,6a-tetrahydrocyclopropa[4,5]cyclopenta[1,2-c]pyridine-6-carboxylic acid] were, in that order, 0.0432 µM and 0.015 µM.
For `CC1(C)CCN(c2ccccc2C(F)(F)F)c2cc(COc3cc4c(cn3)[C@H]3[C@@H](C4)[C@@H]3C(=O)O)c(F)cc21` [Example 53, (5aR,6S,6aS)-3-((6-fluoro-4,4-dimethyl-1-(2-(trifluoromethyl)phenyl)-1,2,3,4-tetrahydroquinolin-7-yl)methoxy)-5,5a,6,6a-tetrahydrocyclopropa[4,5]cyclopenta[1,2-c]pyridine-6-carboxylic acid] the same measures were 0.00838 µM and 0.0392 µM.
The like results for `CC1(C)CC(=O)N(c2ccccc2C(F)(F)F)c2cc(COc3cc4c(cn3)[C@H]3[C@@H](C4)[C@@H]3C(=O)O)c(F)cc21` [Example 54, (5aR,6S,6aS)-3-((6-fluoro-4,4-dimethyl-2-oxo-1-(2-(trifluoromethyl)phenyl)-1,2,3,4-tetrahydroquinolin-7-yl)methoxy)-5,5a,6,6a-tetrahydrocyclopropa[4,5] cyclopenta[1,2-c]pyridine-6-carboxylic acid] were, in that order, 0.0449 µM and 0.562 µM.
As for `CC1(C)CCC(c2ccccc2C(F)(F)F)c2cc(COc3cc4c(cn3)[C@H]3[C@@H](C4)[C@@H]3C(=O)O)c(F)cc21` (stereo partly drawn) [Example 55, (5aR,6S,6aS)-3-((3-fluoro-5,5-dimethyl-8-(2-(trifluoromethyl)phenyl)-5,6,7,8-tetrahydronaphthalen-2-yl)methoxy)-5,5a,6,6a-tetrahydrocyclopropa[4,5]cyclopenta[1,2-c]pyridine-6-carboxylic acid], the EC50 in assay [1] worked out at 0.0637 µM; in assay [2], 0.0702 µM.
Take `O=C(O)[C@H]1[C@@H]2Cc3cc(OCc4ccc5c(c4)N(c4ccccc4)CCO5)ncc3[C@@H]21` [Example 61, (5aR,6S,6aS)-3-((4-phenyl-3,4-dihydro-2H-benzo[b][1,4]oxazin-6-yl)methoxy)-5,5a,6,6a-tetrahydrocyclopropa[4,5]cyclopenta[1,2-c]pyridine-6-carboxylic acid]: the EC50 in assay [1] turned out to be 0.0405 µM; in assay [2], 0.653 µM.
For `O=C(O)[C@H]1[C@@H]2Cc3cc(OCc4ccc5c(c4)N(c4ccccc4)CCCC5)ncc3[C@@H]21` [Example 62, (5aR,6S,6aS)-3-((1-phenyl-2,3,4,5-tetrahydro-1H-benzo[b]azepin-8-yl)methoxy)-5,5a,6,6a-tetrahydrocyclopropa[4,5]cyclopenta[1,2-c]pyridine-6-carboxylic acid] the same measures were 0.0146 µM and 0.0429 µM.
For the molecule `O=C(O)[C@H]1[C@@H]2Cc3cc(OCc4ccc5c(c4)N(c4ccccc4)CCC5)ccc3[C@@H]21` [Example 66, (1S,1aS,6aR)-4-((1-phenyl-1,2,3,4-tetrahydroquinolin-7-yl)methoxy)-1,1a,6,6a-tetrahydrocyclopropa[a]indene-1-carboxylic acid], the EC50 was 0.00977 µM in assay [1] and 0.0726 µM in assay [2].
As for `O=C(O)[C@H]1[C@@H]2Cc3cc(OCc4ccc5c(c4)N(c4ccccn4)CCC5)ccc3[C@@H]21` [Example 67, (1S,1aS,6aR)-4-((1-(pyridin-2-yl)-1,2,3,4-tetrahydroquinolin-7-yl)methoxy)-1,1a,6,6a-tetrahydrocyclopropa[a] indene-1-carboxylic acid], the EC50 in assay [1] amounted to 0.0289 µM; in assay [2], 0.169 µM.
For the molecule `Cc1ccccc1N1CCCc2ccc(COc3ccc4c(c3)C[C@H]3[C@H](C(=O)O)[C@@H]43)cc21` [Example 68, (1S,1aS,6aR)-4-((1-(o-tolyl)-1,2,3,4-tetrahydroquinolin-7-yl)methoxy)-1,1a,6,6a-tetrahydrocyclopropa[a] indene-1-carboxylic acid], the EC50 in assay [1] was determined as 0.0247 µM; in assay [2] it was 0.0649 µM.
For `Cn1cnc2c([C@H]3CC(C)(C)c4ccc(COc5cc6c(cn5)[C@H]5[C@@H](C6)[C@@H]5C(=O)O)cc43)cccc21` [Example 71] the same measures were 0.0133 µM and 0.205 µM.
For `CN1CC(C)(C)c2cc(F)c(COc3cc4c(cn3)[C@H]3[C@@H](C4)[C@@H]3C(=O)O)cc2[C@H]1c1ccccc1C(F)(F)F` [Example 73, (5aR,6S,6aS)-3-(((S)-6-fluoro-2,4,4-trimethyl-1-(2-(trifluoromethyl)phenyl)-1,2,3,4-tetrahydroisoquinolin-7-yl)methoxy)-5,5a,6,6a-tetrahydrocyclopropa[4,5]cyclopenta[1,2-c]pyridine-6-carboxylic acid] the same measures were 0.0186 µM and 0.0211 µM.
For `CC1(C)CNC(c2ccccc2C(F)(F)F)c2c1ccc(COc1cc3c(cn1)[C@H]1[C@@H](C3)[C@@H]1C(=O)O)c2F` (stereo partly drawn) [Example 74, (5aR,6S,6aS)-3-((8-fluoro-4,4-dimethyl-1-(2-(trifluoromethyl)phenyl)-1,2,3,4-tetrahydroisoquinolin-7-yl)methoxy)-5,5a,6,6a-tetrahydrocyclopropa[4,5]cyclopenta[1,2-c]pyridine-6-carboxylic acid] the same measures were 0.00675 µM and 0.00499 µM.

For orientation: EC50 means the concentration giving half of the maximal effect.
